{
  "source": "patent US20080129961A1",
  "about": "“METHOD AND APPARATUS FOR MEASURING QUANTITY OF A FLUOROCHROME IN A BIOLOGICAL ENVIRONMENT” (priority 2006, published 2008)",
  "key": {"[1]": {"assay": "pH stability of ICG emission intensity", "type": "physicochemical"}, "[2]": {"assay": "Solubility and fluorescence behaviour of ICG in serum and vitreous humor", "experimental": "ICG (Acros Organics, Fair Lawn, N.J.) was dissolved in PBS, pH 7.4, with 0.1% Tween 20 at 25° C. to make the aqueous standards. Fluorescence of a series of 1:2 dilutions were made with a spectrofluorometer beginning with a maximum concentration of 100 ng/ml down to a “blank” comprising PBS, pH 7.4, with 0.1% Tween with essentially no ICG (only trace amounts)."}},
  "data": [
    {"smiles": "CC1(C)C(/C=C/C=C/C=C/C=C2\\N(CCCCS(=O)(=O)[O-])c3ccc4ccccc4c3C2(C)C)=[N+](CCCCS(=O)(=O)[O-])c2ccc3ccccc3c21.[Na+]", "note": "[ICG, indocyanin green]", "values": [
      {"measurement": "pH range across which emission intensity is stable", "setting": "[1]", "result": "5-10 pH"},
      {"measurement": "solubility in serum and vitreous humor after pre-dissolution", "setting": "[2]; first dissolved in PBS, pH 7.4, 0.1% Tween 20 (≧1000 ng/ml), then mixed with bovine vitreous humor or human serum", "result": "remain in solution"},
      {"measurement": "spectra and quantum yield in serum and vitreous humor compared to ICG in PBS with 0.1% Tween 20", "setting": "[2]; first dissolved in PBS, pH 7.4, 0.1% Tween 20, then mixed with bovine vitreous humor or human serum", "result": "maintain its spectra and quantum yield"},
      {"measurement": "solubility when mixed directly with serum or vitreous humor", "setting": "[2]; mixed directly with serum or vitreous humor", "result": "not completely soluble"}
    ]}
  ]
}
